In brackets after ≈: the same amount, converted by molar mass. Several values for one entry are separate records, joined by “and”; a condition that tells them apart may be missing. Identical values can stand only once. Like-named read-outs stand apart in the source and are kept apart here.
Legend:
[1] = tested on: M. bovis BCG Pasteur; experiment: microbe, parasite or virus in culture; type: cell-based; conditions: for MIC: Mycobacterium tuberculosis variant bovis BCG, BCG; for MIC M. bovis BCG: SPOTi, 2 weeks at 37°C
[2] = tested on: M. tuberculosis H37Rv; experiment: SPOTi growth inhibition assay, M. tuberculosis H37Rv; type: cell-based; conditions: for MIC: Mycobacterium tuberculosis, H37RV
[3] = molecular target: MurE (Rv2158c) protein of M. tuberculosis H37Rv (Mycobacterium tuberculosis, UniProt P9WJL3); experiment: Mtb-MurE HPLC inhibition assay; type: biochemical; conditions: HPLC assay, 37°C 30 min
[4] = tested on: murine macrophage cell line RAW264.7; experiment: Eukaryotic cell toxicity assay, RAW264.7; type: cell-based; conditions: Mus musculus
[5] = tested on: R. equi RHA1; experiment: SPOTi assay, R. equi RHA1; type: cell-based, Rhodococcus equi; conditions: 30°C 48 h; for MIC: Rhodococcus (subgen. Prescottella) equi, RHA1, LB
[6] = tested on: M. aurum; experiment: SPOTi assay, M. aurum; type: cell-based, Mycobacterium aurum; conditions: for MIC: Mycolicibacterium aurum
[7] = tested on: E. coli K12; experiment: SPOTi assay, E. coli; type: cell-based, Escherichia coli; conditions: 37°C overnight; for MIC: Escherichia coli, K12, LB
[8] = tested on: P. putida; experiment: SPOTi assay, P. putida; type: cell-based, Pseudomonas putida; conditions: LB, 37°C overnight; for MIC: Pseudomonas putida
[9] = tested on: M. smegmatis mc^2155; experiment: SPOTi assay, M. smegmatis; type: cell-based, Mycobacterium smegmatis; conditions: for MIC: Mycolicibacterium smegmatis, MC^2155
[10] = 336 h, read-out: MIC M. bovis BCG, SPOTi, 2 weeks at 37°C
[11] = read-out: MIC M. bovis BCG, SPOTi, value in square brackets
[12] = 336 h, SPOTi, 2 weeks at 37°C, read-out: MIC M. tuberculosis H37Rv
[13] = SPOTi, value in square brackets, read-out: MIC M. tuberculosis H37Rv
[14] = RAW264.7, value in square brackets, read-out: GIC50 RAW264.7
[15] = murine macrophage cell line RAW264.7, read-out: GIC50 RAW264.7
[16] = RAW264.7, read-out: GIC50 RAW264.7
[17] = 336 h, read-out: MIC M. tuberculosis H37Rv, SPOTi, 2 weeks at 37°C

Sequence of MurE (Rv2158c) protein of M. tuberculosis H37Rv (P9WJL3 whole entry, looked up): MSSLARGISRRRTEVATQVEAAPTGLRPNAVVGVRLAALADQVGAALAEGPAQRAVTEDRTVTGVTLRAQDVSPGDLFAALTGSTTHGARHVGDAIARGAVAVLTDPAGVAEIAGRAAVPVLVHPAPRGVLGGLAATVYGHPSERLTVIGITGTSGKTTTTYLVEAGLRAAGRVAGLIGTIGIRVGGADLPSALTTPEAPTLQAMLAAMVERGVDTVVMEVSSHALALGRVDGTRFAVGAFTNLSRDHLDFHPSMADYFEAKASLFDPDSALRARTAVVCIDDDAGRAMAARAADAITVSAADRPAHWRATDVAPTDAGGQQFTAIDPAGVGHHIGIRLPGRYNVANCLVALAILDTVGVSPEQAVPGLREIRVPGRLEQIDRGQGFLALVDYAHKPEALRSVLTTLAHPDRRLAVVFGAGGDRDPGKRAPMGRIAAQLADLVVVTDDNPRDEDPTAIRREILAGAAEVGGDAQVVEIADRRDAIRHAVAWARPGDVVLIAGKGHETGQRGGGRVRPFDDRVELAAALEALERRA

| SMILES | MIC [1, 10] [µg/mL] | MIC [1, 11] [µM] | IC50 [4, 14] [µM] | IC50 [4, 15] [µg/mL] | also measured |
| --- | --- | --- | --- | --- | --- |
| COc1cc2c(c(O)c1OC)C[C@H]1c3c(cc4c(c3-2)OCO4)CCN1C [(S)-Leucoxine (1), (S)-Leucoxine] | 25 | 70 | 352 | 125 | MIC [2, 12]: 30 µg/mL; MIC [2, 13]: 84 µM; IC50 [3]: 820 µM |
| Oc1cc2c(cc1O)C(Cc1ccccc1)NCC2 (stereo not drawn) [Compound 3] | > 100 | > 392 | 313 | 81 | – |
| Oc1cc2c(cc1O)C(c1ccccn1)NCC2 (stereo not drawn) [Compound 4] | > 100 | > 413 | 248 | 60 | – |
| COc1ccc(C2NCCc3cc(O)c(O)cc32)cc1 (stereo not drawn) [Compound 5] | > 100 | > 369 | 335 | 91 | – |
| Oc1ccc(C2NCCc3cc(O)c(O)cc32)cc1 (stereo not drawn) [Compound 6] | > 100 | > 389 | 358 | 92 | – |
| Oc1cccc(C2NCCc3cc(O)c(O)cc32)c1 (stereo not drawn) [Compound 7] | > 100 | > 389 | 342 | 88 | – |
| Oc1cc2c(cc1O)C(c1ccccc1O)NCC2 (stereo not drawn) [Compound 8] | > 100 | > 389 | 338 | 87 | – |
| Oc1cc2c(cc1O)C(c1cccs1)NCC2 (stereo not drawn) [Compound 9] | > 100 | > 404 | – | – | IC50 [4, 16]: 56 µg/mL and 226 µM |
| Oc1cc2c(cc1O)[C@@H](O)CN[C@H]2Cc1ccccc1 [Compound 10] | > 60 | – | – | – | MIC ([1]; 336 h, read-out: MIC M. bovis BCG, SPOTi, value in square brackets): 271 µM; MIC M. bovis BCG [1]: 100 µg/mL (≈ 369 µM); IC50 [4, 16]: > 250 µg/mL and > 566 µM |
| O=C(O)[C@@H]1Cc2cc(O)c(O)cc2[C@@H](Cc2ccccc2)N1 [Compound 11] | > 100 | > 334 | 291 | 87 | – |
| Oc1cc2c(cc1O)C(c1cncc3ccccc13)NCC2 (stereo not drawn) [Compound 12] | > 100 | > 342 | > 855 | > 250 | – |
| CC(C)=CCC[C@H](C)CC1NCCc2cc(O)c(O)cc21 (stereo partly drawn) [Compound 13] | > 60 | 346 | > 864 | > 250 | MIC M. bovis BCG [1]: 100 µg/mL (≈ 346 µM) |
| OC[C@@H](O)[C@@H]1NCCc2cc(O)c(O)cc21 [Compound 14] | > 100 | > 444 | 377 | 85 | – |
| Nc1ccc2c(c1)CCNC2Cc1ccccc1 (stereo not drawn) [Compound 15] | > 100 | > 420 | 789 | 188 | – |
| Oc1ccc2c(c1)CCNC2Cc1ccccc1 (stereo not drawn) [Compound 16] | > 60 | 418 | 683 | 195 | MIC M. bovis BCG [1]: 100 µg/mL (≈ 418 µM) |
| Oc1cccc(CC2NCCc3cc(O)c(O)cc32)c1 (stereo not drawn) [Compound 17] | > 100 | > 369 | 236 | 64 | – |
| COc1ccc(CC2NCCc3cc(O)c(O)cc32)cc1OC (stereo not drawn) [Compound 18] | > 100 | > 317 | 178 | 56 | – |
| COc1cc(CC2NCCc3cc(O)c(O)cc32)ccc1O (stereo not drawn) [Compound 19] | > 100 | > 332 | 166 | 50 | – |
| Oc1cc2c(cc1O)C(Cc1ccc3c(c1)OCO3)NCC2 (stereo not drawn) [Compound 20] | > 60 | 334 | 602 | 190 | MIC M. bovis BCG [1]: 100 µg/mL (≈ 334 µM); MIC [5]: > 100 µg/mL; MIC M. aurum [6]: >100 µg/mL; MIC [6]: > 100 µg/mL; MIC [7]: > 100 µg/mL; MIC [8]: > 100 µg/mL; MIC M. smegmatis mc^2155 [9]: >100 µg/mL; MIC [9]: > 100 µg/mL; IC50 [3]: 237 µM |

| SMILES | MIC [1, 10] [µg/mL] | MIC [1, 11] [µM] | IC50 [4, 14] [µM] | IC50 [4, 15] [µg/mL] | also measured |
| --- | --- | --- | --- | --- | --- |
| Oc1cc2c(cc1O)C(Cc1ccccc1Br)NCC2 (stereo not drawn) [Compound 21] | > 100 | > 299 | 141 | 47 | – |
| CC1(C(=O)O)NCCc2cc(O)c(O)cc21 (stereo not drawn) [Compound 22] | > 100 | > 448 | 797 | 178 | – |
| Oc1cc2c(cc1O)C(C1CCCCC1)NCC2 (stereo not drawn) [Compound 23] | > 100 | > 404 | 182 | 45 | MIC [2, 12]: > 100 µg/mL; MIC [2, 13]: > 404 µM |
| CCCCCCCCCC1NCCc2cc(O)c(O)cc21 (stereo not drawn) [Compound 24] | > 60 | 275 | 5.5 | 1.6 | MIC M. bovis BCG [1]: 80 µg/mL (≈ 275 µM); MIC [2, 17]: 80 µg/mL; MIC [2, 13]: 206 µM; MIC M. tuberculosis H37Rv ([2]; SPOTi, 2 weeks at 37°C): 60 µg/mL (≈ 206 µM); MIC [5]: > 100 µg/mL; MIC [6]: 100 µg/mL (≈ 343 µM); MIC [7]: > 100 µg/mL; MIC [8]: > 100 µg/mL; MIC [9]: 100 µg/mL (≈ 343 µM); IC50 [3]: 186 µM |
| C[C@@H]1NC(Cc2ccc3c(c2)OCO3)c2ccc(O)cc2[C@H]1O (stereo partly drawn) [Compound 25] | > 100 | > 319 | 578 | 181 | – |
| O=C(O)[C@@H]1Cc2cc(O)c(O)cc2C(Cc2ccc3c(c2)OCO3)N1 (stereo partly drawn) [Compound 26] | > 100 | > 291 | 533 | 183 | – |
| Oc1ccc2c(c1)CCNC2Cc1ccc2c(c1)OCO2 (stereo not drawn) [Compound 27] | 100 | 353 | 529 | 150 | IC50 [3]: > 1000 µM |
| Oc1cc2c(cc1O)C(c1cccc3c1OCO3)NCC2 (stereo not drawn) [Compound 29] | > 100 | > 351 | 263 | 75 | IC50 [3]: 471 µM |
| Oc1cc2c(cc1O)[C@@H](O)CNC2c1cccc2c1OCO2 (stereo partly drawn) [Compound 30] | > 100 | > 332 | 295 | 89 | – |
| CN1C[C@H](O)c2cc(O)c(O)cc2[C@@H]1c1cccc2c1OCO2 [Compound 31] | > 100 | > 317 | 434 | 137 | – |
| CN1C[C@H](O)c2cc(O)c(O)cc2[C@H]1c1cccc2c1OCO2 [Compound 32] | > 100 | > 317 | 574 | 181 | – |
| Oc1cc2c(c(O)c1O)C(c1cccc3c1OCO3)NCC2 (stereo not drawn) [Compound 33] | > 100 | > 332 | 18 | 5.5 | IC50 [3]: 148 µM |
| Oc1ccc2c(c1)CCNC2c1cccc2c1OCO2 (stereo not drawn) [Compound 34] | > 100 | > 371 | 672 | 181 | IC50 [3]: > 1000 µM |
| COc1ccc(Cl)c2c1C(Cc1ccc3c(c1)OCO3)NCC2 (stereo not drawn) [Compound 36] | 40 | 121 | 124 | 41 | MIC [2, 12]: 60 µg/mL; MIC [2, 13]: 181 µM; MIC [5]: > 100 µg/mL; MIC [6]: 60 µg/mL (≈ 181 µM); MIC [7]: > 100 µg/mL; MIC [8]: > 100 µg/mL; MIC [9]: 60 µg/mL (≈ 181 µM) |
| COc1ccc(Br)c2c1C(Cc1ccc3c(c1)OCO3)NCC2 (stereo not drawn) [Compound 37] | 30 | 53 | 80 | 30 | MIC M. bovis BCG [1]: 20 µg/mL (≈ 53.2 µM); MIC [2, 17]: 40 µg/mL; MIC [2, 13]: 106 µM; IC50 [3]: 165 µM |
| COc1ccc(I)c2c1C(Cc1ccc3c(c1)OCO3)NCC2 (stereo not drawn) [Compound 38] | 50 | 118 | 66 | 28 | MIC [2, 12]: 30 µg/mL; MIC [2, 13]: 71 µM; IC50 [3]: < 111 µM |
| COc1cccc2c1C(Cc1ccc3c(c1)OCO3)NCC2 (stereo not drawn) [Compound 40] | > 50 | > 168 | 740 | 220 | MIC [2, 12]: > 100 µg/mL; MIC [2, 13]: > 336 µM; IC50 [3]: 300 µM |
| NC[C@H]1O[C@H](O[C@H]2[C@H](O)[C@@H](O[C@H]3O[C@H](CO)[C@@H](O)[C@H](N)[C@H]3O)[C@H](N)C[C@@H]2N)[C@H](O)[C@@H](O)[C@@H]1O [Kanamycin, reference compound] | – | – | – | – | MIC R. equi RHA1 ([5]; LB): 1 µg/mL (≈ 2.06 µM); MIC E. coli K12 ([7]; LB): 1 µg/mL (≈ 2.06 µM); MIC P. putida [8]: 10 µg/mL (≈ 20.6 µM) |
| Oc1ccc(CC2NCCc3cc(O)c(O)cc32)cc1 (stereo not drawn) [Norcoclaurine (2), Norcoclaurine] | > 100 | > 369 | 1570 | 425 | IC50 [3]: 837 µM |
